Entries after “also recorded” stand apart in the source; their conditions may differ.
How the values were obtained:
[1] = test system: Calloselasma rhodostoma venom; assay: Thrombelastography in human plasma of venom procoagulant activity after isolated exposure of venom to compounds; assay type: biochemical; settings: venom 5 μg/ml in plasma
Protocol: (§1) Thrombelastographic analyses. The volumes of subsequently described plasmatic and other additives summed to a final volume of 360 μl. Samples were composed of 320 μl of plasma; 16.4 μl of PBS, 20 μl of 200 mM CaCl2), and 3.6 μl of PBS or venom mixture, which were pipetted into a disposable cup in a Thrombelastograph® hemostasis system (Model 5000, Haemonetics Inc., Braintree, MA, USA) at 37° C., and then rapidly mixed by moving the cup up against and then away from the plastic pin five times. The following viscoelastic parameters described previously (see, Nielsen V G (2019) J Thromb Thrombolysis 47, 73-79; Gessner G, et al., (2017) Eur J Pharmacol 815, 33-41; Nielsen V G, Wagner M T, Frank N (2020) Int J Mol Sci 21, 2082; Lazić D, Arsenijević A, Puchta R, Bugarčić ŽD, Rilak A (2016) Dalton Trans 45, 4633; Hanif M, et al., (2017) ChemPlusChem 82, 841-847) were measured: time to maximum rate of thrombus generation (TMRTG): this is the time interval (minutes) observed prior to maximum speed of clot growth; maximum rate of thrombus generation (MRTG): this is the maximum velocity of clot growth observed (dynes/cm^2/second); and total thrombus generation (TTG, dynes/cm^2), the final viscoelastic resistance observed after clot formation.
C. rhodostoma. […] The final concentration of this venom in plasma was 5 μg/ml.
(§2) Given the aforementioned, the experimental conditions utilized were: 1) V condition—venom in PBS; 2) Ru(II) condition—venom exposed to CORM-2; 3) Ru(III) condition—venom exposed to RuCl3; 4) Ru(II+III) condition—venom exposed to CORM-2 and RuCl3 simultaneously. After the 5 minute period at room temperature, 3.6 μl of one of these solutions was added to the plasma sample in the plastic thrombelastograph cup.
(§3) The volumes of subsequently described plasmatic and other additives summed to a final volume of 360 μl. Samples were composed of 320 μl of plasma; 16.4 μl of PBS, 20 μl of 200 mM CaCl2), and 3.6 μl of PBS or venom mixture, which were pipetted into a disposable cup in a Thrombelastograph® hemostasis system (Model 5000, Haemonetics Inc., Braintree, MA, USA) at 37° C., and then rapidly mixed by moving the cup up against and then away from the plastic pin five times. The following viscoelastic parameters described previously (see, Nielsen, V. G. J Thromb Thrombolysis 2019, 47, 73-79; Gessner, G.; et al., Eur J Pharmacol 2017, 815, 33-41; Nielsen, V. G.; Wagner, M. T.; Frank, N. Int J Mol Sci 2020, 21, 2082; Lazid, D.; et al., Dalton Trans 2016, 45, 4633; Hanif, M.; et al., ChemPlusChem 2017, 82, 841-847) were measured: time to maximum rate of thrombus generation (TMRTG): this is the time interval (minutes) observed prior to maximum speed of clot growth; maximum rate of thrombus generation (MRTG): this is the maximum velocity of clot growth observed (dynes/cm2/second); and total thrombus generation (TTG, dynes/cm2), the final viscoelastic resistance observed after clot formation.
C. rhodostoma. […] This venom was also exposed to 0 or 100 μM CORM-2 in the presence of 0 or 100 μM carboplatin in another series of experiments. The final concentration of this venom in plasma was 5 μg/ml.

[2] = test system: Oxyuranus microlepidotus venom; assay: as above; assay type: biochemical; settings: venom 1 μg/ml in plasma; for procoagulant activity of venom: venom exposed ≥5 min in PBS to 100 μM CORM-2, 100 μM RuCl3 or both
Protocol: as §1
(§4) O. microlepidotus. This venom was exposed to 0 or 100 μM CORM-2 in the presence of 0 or 100 μM RuCl3 in PBS for at least 5 minutes at room temperature prior to placement into plasma followed immediately with commencement of thrombelastographic analysis. The final concentration of this venom in plasma was 1 μg/ml.
as §2
as §3, with “formation. […]” for “formation.”

human plasma = settings: cited from earlier work
[3] = test system: Heloderma suspectum venom; assay: Thrombelastography in human plasma of venom procoagulant activity after isolated exposure of venom to compounds; assay type: biochemical; settings: venom 10 μg/ml in plasma
Protocol: as §3
as §4, with “H. suspectum. This” for “O. microlepidotus. This”, “or 1 mM CORM-3” for “or 100 μM CORM-2”, “was 10” for “was 1”
as §2, with “CORM-2 or CORM-3;” for “CORM-2;”, “CORM-2 or CORM-3” for “CORM-2”, “simultaneously; 5) Pt(II) condition—venom exposed to carboplatin; and 6) Pt+Ru condition—venom exposed to carboplatin and CORM-2.” for “simultaneously.”

[4] = 50 μM CORM-2, 50 μM RuCl3 or both
[5] = 100 μM carboplatin, 100 μM CORM-2 or both
[6] = venom exposed ≥5 min in PBS to 50 μM CORM-2, 50 μM RuCl3 or both
[7] = 100 μM CORM-2, 100 μM RuCl3 or both
[8] = 100 μM CORM-3, 100 μM RuCl3 or both
[9] = 1 mM CORM-3, 100 μM RuCl3 or both

Compound	maximum rate of thrombus generation (MRTG) [1, 4]	time to maximum rate of thrombus generation (TMRTG) [1, 4]	maximum rate of thrombus generation (MRTG) [1, 5]	time to maximum rate of thrombus generation (TMRTG) [1, 5]	total thrombus generation (TTG) [1, 5]	procoagulant activity of venom [1, 6]	maximum rate of thrombus generation (MRTG) [2, 7]	time to maximum rate of thrombus generation (TMRTG) [2, 7]	total thrombus generation (TTG) [2, 7]	procoagulant activity of venom [2]	coagulation kinetics (human plasma; 1 μM CORM-2)	plasmatic coagulation kinetics (human plasma; up to 10 μM CORM-2 in PBS)	maximum rate of thrombus generation (MRTG) [1, 8]	time to maximum rate of thrombus generation (TMRTG) [1, 8]	procoagulant activity of venom / coagulation kinetic parameters ([3]; venom exposed ≥5 min in PBS to 1 mM CORM-3, 100 μM RuCl3 or both)	human plasmatic coagulation (human plasma; RuCl3 at or below 1 μM)	procoagulant activity of venom [1, 8]	maximum rate of thrombus generation (MRTG) [3, 9]	time to maximum rate of thrombus generation (TMRTG) [3, 9]	total thrombus generation (TTG) [3, 9]
[C-]#[O+].[C-]#[O+].[C-]#[O+].[C-]#[O+].[C-]#[O+].[C-]#[O+].[Cl][Ru][Cl].[Cl][Ru][Cl] [CORM-2, tricarbonyldichlororuthenium(II) dimer]	decrease	increased; also recorded: significant increase	decrease	significant increase	decrease	significantly decreased; also recorded: procoagulant activity inhibition	decrease	prolonged; also recorded: significant increase	decrease	significant decrease; also recorded: procoagulant activity inhibition	does not affect	no effect	–	–	–	–	–	–	–	–
[Cl][Ru]([Cl])[Cl] [RuCl3, ruthenium(III) chloride]	decrease	increase	–	–	–	significantly diminished	–	–	–	did not significantly affect	–	–	decrease	significant increase	no significant changes in any of the coagulation kinetic parameters	does not significantly affect	–	–	–	–
Tricarbonylchloro(glycinato)ruthenium [CORM-3]	–	–	–	–	–	–	–	–	–	–	–	–	–	–	–	–	no significant effect	no change	significant increase	no change
